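Five compound concentrations were applied to cells in 96-well plates for 48 hours; endpoints were derived by simple linear interpolation of the resulting dose-response curve. TGI: concentration producing complete growth inhibition.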
Experiments:
Experiment in all cases: NCI-60 cell line screen, 48 h
A498 renal = test system: A498 renal
SW-620 colon = test system: SW-620 colon
LOX IMVI melanoma = test system: LOX IMVI melanoma
HCT-15 colon = test system: HCT-15 colon
COLO 205 colon = test system: COLO 205 colon
IGROV1 ovarian = test system: IGROV1 ovarian
SNB-75 CNS = test system: SNB-75 CNS
PC-3 prostate = test system: PC-3 prostate
SF-539 CNS = test system: SF-539 CNS
A549 NSCLC = test system: A549 NSCLC
CAKI-1 renal = test system: CAKI-1 renal
SK-OV-3 ovarian = test system: SK-OV-3 ovarian
MCF7 breast = test system: MCF7 breast
NCI/ADR-RES ovarian = test system: NCI/ADR-RES ovarian
HCC-2998 colon = test system: HCC-2998 colon
RXF 393 renal = test system: RXF 393 renal
SK-MEL-2 melanoma = test system: SK-MEL-2 melanoma
MDA-N = test system: MDA-N
SK-MEL-28 melanoma = test system: SK-MEL-28 melanoma
U251 CNS = test system: U251 CNS
CCRF-CEM leukemia = test system: CCRF-CEM leukemia
786-0 renal = test system: 786-0 renal
OVCAR-4 ovarian = test system: OVCAR-4 ovarian
UACC-62 melanoma = test system: UACC-62 melanoma
HT29 colon = test system: HT29 colon
MDA-MB-231 breast = test system: MDA-MB-231 breast
HL-60(TB) leukemia = test system: HL-60(TB) leukemia
MOLT-4 leukemia = test system: MOLT-4 leukemia
ACHN renal = test system: ACHN renal
SF-295 CNS = test system: SF-295 CNS
UACC-257 melanoma = test system: UACC-257 melanoma
HS 578T breast = test system: HS 578T breast
HOP-92 NSCLC = test system: HOP-92 NSCLC
OVCAR-3 ovarian = test system: OVCAR-3 ovarian
SK-MEL-5 melanoma = test system: SK-MEL-5 melanoma
OVCAR-8 ovarian = test system: OVCAR-8 ovarian
SN12C renal = test system: SN12C renal
NCI-H23 lung = test system: NCI-H23 lung
OVCAR-5 ovarian = test system: OVCAR-5 ovarian
NCI-H226 lung = test system: NCI-H226 lung
KM12 colon = test system: KM12 colon
SR leukemia = test system: SR leukemia
TK-10 renal = test system: TK-10 renal
EKVX NSCLC = test system: EKVX NSCLC
K-562 leukemia = test system: K-562 leukemia
HCT-116 colon = test system: HCT-116 colon
SNB-19 CNS = test system: SNB-19 CNS
NCI-H460 lung = test system: NCI-H460 lung
HOP-62 NSCLC = test system: HOP-62 NSCLC
UO-31 renal = test system: UO-31 renal
BT-549 breast = test system: BT-549 breast
M14 melanoma = test system: M14 melanoma
MALME-3M melanoma = test system: MALME-3M melanoma
NCI-H522 lung = test system: NCI-H522 lung
RPMI-8226 leukemia = test system: RPMI-8226 leukemia
DU-145 prostate = test system: DU-145 prostate
MDA-MB-435 = test system: MDA-MB-435
SF-268 CNS = test system: SF-268 CNS

Measured: TGI

Cn1c(=O)n2c(-c3ccccc3)c(-c3ccccc3)n2c1=O
not listed: NCI-H522 lung | RPMI-8226 leukemia | DU-145 prostate | MDA-MB-435 | SF-268 CNS
> 100 µM: all other assays above

O=Nc1sc(=N\O)/c(=N/O)sc1NO
not listed: HS 578T breast | TK-10 renal | SF-268 CNS
> 100 µM: all other assays above

CCOC(=O)N/N=C(\Cc1ccc([N+](=O)[O-])cc1)OCC
not listed: A498 renal | CAKI-1 renal | SK-MEL-28 melanoma | HL-60(TB) leukemia | HS 578T breast | NCI-H226 lung | NCI-H460 lung | MALME-3M melanoma
> 100 µM: all other assays above

Cc1cc(=O)oc2c(OS(C)(=O)=O)c(OS(C)(=O)=O)ccc12
not listed: SNB-75 CNS | SK-OV-3 ovarian | RXF 393 renal | DU-145 prostate
> 100 µM: all other assays above
